Results on 34 compounds are retold here after US20250170155A1, “NUCLEOSIDE DERIVATIVES AND PRODRUGS THEREOF HAVING VIRAL GROWTH INHIBITORY ACTION” (Shionogi & Co., Ltd., priority 2021, published 2025).

For orientation: CC50 means the concentration at which the toxic effect on the cells reaches its halfway point. A low value points to harm at low concentration.

Assay type in all cases: cell-based
The subject of series [1] is influenza virus (A/WSN/33 (H1N1) strain). Briefly: CPE suppression effect confirmation test (influenza virus, RPMI 2650 cells), antiviral activity. As to conditions: for EC50: read-out: Influenza EC50 (50% CPE inhibitory concentration), A/WSN/33 (H1N1), 3 to 6 days.
Series [2] can be described thus: Cytotoxic activity evaluation, Vero E6/TMPRSS2 cells. Conditions: African green monkey, no virus. The method, then:
(§1) <Operation Procedure (Cytotoxic Activity Evaluation)>
A 3- to 5-fold serial dilution series of test substances was prepared in DMSO, diluted with 2% FBS/MEM so that the concentration of DMSO was 2%, and dispensed into a 96 well plate (50 μL/well, DMSO final concentration 0.5%). • Dilution and dispensing of cells
The cells prepared to an appropriate number were seeded at 100 μL/well to the plate into which the test substance was dispensed. Thereafter, the cells were cultured in a CO2 incubator at 37° C. for 3 days. • Dispensing of CellTiter-Glo (registered trademark) 2.0 Reagent
Same as those described in the section for evaluation of antiviral activity • Measurement of luminescence intensity
(§2) Same as those described in the section for evaluation of antiviral activity
Excel, TIBCO Spotfire, or a program having equivalent calculation processing capability based on the following calculation formula.

Series [3] concerns SARS-CoV-2 (hCoV-19/Japan/TY/WK-521/2020 strain). Briefly: CPE suppression effect confirmation test (SARS-CoV-2, Vero E6/TMPRSS2 cells), antiviral activity. As to conditions: for EC50: Severe acute respiratory syndrome coronavirus 2, VeroE6/TMPRSS2, 72 h, read-out: SARS-CoV-2 EC50 (50% CPE inhibitory concentration), 3 days culture.
Series [4] in a line: Cytotoxic activity evaluation, RPMI 2650 cells. As to conditions: human, no virus, 3 to 6 days. The method, then:
as §1
On the day before the compound treatment, cells prepared to an appropriate number were seeded in a 96 well plate at 100 μL/well. Thereafter, the cells were cultured in a CO2 incubator at 37° C. • Preparation of 2 μg/mL trypsin/0.5% BSA/MEM
Same as those described in the section for evaluation of antiviral activity • Dilution and dispensing of test substance
A 3- to 5-fold serial dilution series of test substances was prepared in DMSO in advance, and diluted with 2 μg/mL trypsin/0.5% BSA/MEM so that the final concentration of DMSO was 0.5% (100 to 200 μL/well). The cells were washed with MEM, and then cultured in a test substance-added medium for 3 to 6 days. Double measurement was performed for each drug. • Dispensing of resazurin solution
Same as those described in the section for evaluation of antiviral activity • Measurement of fluorescence intensity
as §2
[formula] [formula] • Calculation of Selectivity Index (SI)

Series [5] has as its system SARS-CoV-2 (hCoV-19/Japan/TY/WK 521/2020 strain). Briefly: microbe, parasite or virus in culture. Conditions: HEK293T/ACE2-TMPRSS2 cells; for EC50: Severe acute respiratory syndrome coronavirus 2, HEK-293T, 72 h, read-out: SARS-CoV-2 EC50 (50% CPE inhibitory concentration), 293T-AT, 3 days culture.

Some results are limits rather than exact numbers.

As for `N#C[C@@]1(c2ccc3c(N)ncnn23)O[C@H](CO)[C@@H](O)[C@H]1O` [GS-441524, reference compound], in series [1], the EC50 is more than 500 µM.
In turn, `Cl.Nc1ncnn2c([C@@H]3N[C@H](CO)[C@@H](O)[C@H]3O)cc(-c3n[nH]c4ccccc34)c12` [Compound I-049] came in with a CC50 at 3 days in series [2] of 397 µM. For the same compound, in series [3], the “SARS-CoV-2 SI (Selectivity Index)” value is recorded as 5.7 and the EC50 stood at 69.6 µM.
The like results for `N=C(N)c1cc([C@@H]2N[C@H](CO)[C@@H](O)[C@H]2O)n2ncnc(N)c12` [Compound I-017] were, in that order, more than 500 µM, more than 11.1 and 44.9 µM.
The like results for `Cl.Nc1ncnn2c([C@@H]3N[C@H](CO)[C@@H](O)[C@H]3O)cc(-c3ccn[nH]3)c12` [Compound I-029] were, in that order, 316 µM, 9.01 and 34.7 µM.
`Nc1ncnn2c([C@@H]3N[C@H](CO)[C@@H](O)[C@H]3F)ccc12` [Compound I-013] returned a cytotoxic concentration (CC50) in series [4] of more than 500 µM. In series [1], the “Influenza SI (Selectivity Index)” value is recorded as more than 1.99 and the EC50 was found to be 251 µM.
In series [2], `N#C[C@@]1(c2ccn3c(N)ncnc23)O[C@H](CO)[C@@H](O)[C@H]1O` [Compound I-046] yielded a 50% cytotoxic concentration (CC50) at 3 days of 485 µM. Besides, in series [3], the “SARS-CoV-2 SI (Selectivity Index)” value came out at 15.6 and the EC50 stood at 31.1 µM.
`Nc1ncnc2c([C@@H]3N[C@H](CO)[C@@H](O)[C@H]3O)c[nH]c12` [Galidesivir, reference compound]: in series [5], the “SARS-CoV-2 SI (Selectivity Index), 293T-AT” value is less than 5.3 and the EC50 was more than 20 µM. For the same compound, in series [3], the EC50 is more than 100 µM.
On to `Cc1cc(-c2cc([C@@H]3N[C@H](CO)[C@@H](O)[C@H]3O)n3ncnc(N)c23)[nH]n1.Cl` [Compound I-050], for which, in series [2], the CC50 at 3 days is more than 500 µM. For the same compound, in series [3], the “SARS-CoV-2 SI (Selectivity Index)” value is more than 11.0 and the EC50 was determined as 45.4 µM.
For `Cl.N/C(=N\O)c1cc([C@@H]2N[C@H](CO)[C@@H](O)[C@H]2O)n2nc(F)nc(N)c12` [Compound I-056] the same measures were more than 500 µM, more than 17.7 and 28.2 µM.
For `Cc1nc(-c2cc([C@@H]3N[C@H](CO)[C@@H](O)[C@H]3O)n3ncnc(N)c23)c[nH]1.Cl` [Compound I-047] the same measures were more than 500 µM, more than 10.4 and 48.2 µM.
For `CCn1cc(-c2cc([C@@H]3N[C@H](CO)[C@@H](O)[C@H]3O)n3ncnc(N)c23)cn1.Cl` [Compound I-044] the same measures were 444 µM, 16.6 and 22.6 µM.
Regarding `Cc1cnc(-c2cc([C@@H]3N[C@H](CO)[C@@H](O)[C@H]3O)n3ncnc(N)c23)s1` [Compound I-043], the CC50 in series [4] is more than 500 µM. In addition, in series [1], the “Influenza SI (Selectivity Index)” value is reported as more than 2.46 and the EC50 amounted to 203 µM.
As for `Nc1ncnn2c([C@@H]3N[C@H](CO)[C@@H](O)[C@H]3O)cc(/C=N\O)c12` [Compound I-026], the 50% cytotoxic concentration (CC50) in series [4] is more than 500 µM. In series [1], the “Influenza SI (Selectivity Index)” value is on record as more than 518 and the EC50 was found to be 0.965 µM.
For `Cl.Nc1ncnn2c([C@H]3N[C@@H](CO)[C@H](O)[C@@H]3O)cc(B(O)O)c12` [Compound I-032] the same measures were more than 500 µM, more than 1.38 and 361 µM.
Regarding `N#C[C@@]1(c2cnc3c(N)ncnn23)O[C@H](CO)[C@@H](O)C1O` (stereo partly drawn) [Compound I-042], the CC50 at 3 days in series [2] was more than 500 µM. In series [3], the “SARS-CoV-2 SI (Selectivity Index)” value is given as more than 6.66 and the EC50 was 75.1 µM.
For `Cl.Nc1ncnn2c([C@@H]3N[C@H](CO)[C@@H](O)[C@H]3O)cc(B(O)O)c12` [Compound I-011], the midpoint of cytotoxicity in series [4], the CC50, lay at 75.1 µM. In series [1], the “Influenza SI (Selectivity Index)” value came to 11.2 and the EC50 is 6.7 µM.
In series [4], `Nc1ncnc2c([C@@H]3O[C@H](CO)[C@@H](O)[C@H]3F)c[nH]c12` [Compound I-002] came in with a 50% cytotoxic concentration (CC50) of more than 500 µM. In series [1], the “Influenza SI (Selectivity Index)” value is more than 105 and the EC50 came to 4.77 µM.
For `Nc1ncnn2c([C@@H]3N[C@H](CO)[C@@H](O)[C@H]3O)cc(F)c12` [Compound I-006] the same measures were 5.38 µM, 17 and 0.316 µM.
`Nc1ncnc2c([C@@H]3N[C@H](CO)[C@@H](O)[C@H]3O)cc(/C=N/O)n12` [Compound I-031] had a CC50 in series [4] of more than 500 µM. Also, in series [1], the “Influenza SI (Selectivity Index)” value is more than 1.46 and the EC50 was found to be 343 µM.
The like results for `O=c1[nH]cnn2c([C@@H]3N[C@H](CO)[C@@H](O)[C@H]3O)ccc12` [Compound I-019] were, in that order, more than 500 µM, more than 7.62 and 65.6 µM.
The like results for `Nc1ncnn2c([C@@H]3N[C@H](CO)[C@@H](O)[C@H]3O)cc(-c3cncs3)c12` [Compound I-027] were, in that order, more than 500 µM, more than 48.5 and 10.3 µM.
The like results for `OC[C@H]1N[C@@H](c2ccn3c(NO)ncnc23)[C@H](O)[C@@H]1O` [Compound I-035] were, in that order, more than 500 µM, more than 1.33 and 375 µM.
As to `Nc1ncnn2c([C@@H]3N[C@H](CO)[C@@H](O)[C@H]3O)ccc12` [WO2014078778 Example5_30 g, reference compound], in series [5], the “SARS-CoV-2 SI (Selectivity Index), 293T-AT” value is less than 1.34 and the EC50 was more than 4 µM. For the same compound, in series [1], the “Influenza SI (Selectivity Index)” value is 73.7 and the EC50 stood at 0.471 µM. Also, in series [3], the “SARS-CoV-2 SI (Selectivity Index)” value was less than 0.41 and the EC50 is more than 4 µM.
Turning to `Nc1ncnn2c([C@@H]3N[C@H](CO)[C@@H](O)[C@H]3O)cc(-c3cccnc3)c12` [Compound I-041], the half-maximal cytotoxic concentration (CC50) in series [4] is more than 500 µM. In addition, in series [1], the “Influenza SI (Selectivity Index)” value is more than 76.2 and the EC50 was found to be 5.56 µM.
`Nc1nc(F)nn2c([C@@H]3N[C@H](CO)[C@@H](O)[C@H]3O)ccc12` [Compound I-004]: the 50% cytotoxic concentration (CC50) in series [4] is more than 500 µM. Besides, in series [1], the “Influenza SI (Selectivity Index)” value is on record as more than 2.06 and the EC50 was 243 µM.
The like results for `Cl.Nc1ncnn2c([C@@H]3N[C@H](CO)[C@@H](O)[C@H]3O)cc(-c3nccs3)c12` [Compound I-021] were, in that order, more than 500 µM, more than 20.9 and 23.9 µM.
The like results for `Nc1ncnn2c([C@@H]3N[C@H](CO)[C@@H](O)C3(F)F)ccc12` [Compound I-003] were, in that order, more than 500 µM, more than 22.1 and 22.6 µM.
For `Nc1ncnc2c([C@@H]3N[C@H](CO)[C@@H](O)[C@H]3O)ccn12` [Compound I-012] the same measures were more than 500 µM, more than 281 and 1.78 µM.
In series [4], `Nc1ncnc2c([C@@H]3O[C@H](CO)[C@@H](O)[C@H]3O)ccn12` [Compound I-014] yielded a CC50 of 13.1 µM. Besides, in series [1], the “Influenza SI (Selectivity Index)” value is reported as 69.7 and the EC50 amounted to 0.188 µM.
The like results for `Cc1nc(N)c2ccc([C@@H]3N[C@H](CO)[C@@H](O)[C@H]3O)n2n1.Cl.Cl` [Compound I-005] were, in that order, more than 500 µM, more than 2.13 and 235 µM.
For the compound `Nc1ncnc2c([C@@H]3N[C@H](CO)[C@@H](O)[C@H]3O)cnn12` [WO2006002231 Example 13_9-4, reference compound], in series [1], the “Influenza SI (Selectivity Index)” value was found to be 4.69 and the EC50 was 87.8 µM.
In turn, `N#CCc1cc([C@@H]2N[C@H](CO)[C@@H](O)[C@H]2O)n2ncnc(N)c12` [Compound I-028] returned a cytotoxic concentration (CC50) in series [4] of 102 µM. In series [1], the “Influenza SI (Selectivity Index)” value came to 20.6 and the EC50 was 4.95 µM.
Regarding `Nc1ncnn2c([C@@H]3N[C@@H](CO)[C@@H](O)[C@H]3F)ccc12` [Compound I-009], the CC50 in series [4] is more than 500 µM. Besides, in series [1], the “Influenza SI (Selectivity Index)” value was 1.23 and the EC50 came to 406 µM.
`CCC1[C@@H](c2ccc3c(N)ncnn23)[C@H](O)[C@H](O)[C@H]1CO` (stereo partly drawn) [Compound I-007] registered a CC50 in series [4] of more than 500 µM. Further, in series [1], the “Influenza SI (Selectivity Index)” value is 1.06 and the EC50 amounted to 473 µM.
